Measurements published in doi:10.1101/2025.06.12.659322v2 (biorxiv, 2025).

These compounds were tested against Rv0183 (mtbMGL) (Mycobacterium tuberculosis, UniProt O07427) (assay: biochemical).
Rv0183 (mtbMGL), sequence (O07427 whole entry): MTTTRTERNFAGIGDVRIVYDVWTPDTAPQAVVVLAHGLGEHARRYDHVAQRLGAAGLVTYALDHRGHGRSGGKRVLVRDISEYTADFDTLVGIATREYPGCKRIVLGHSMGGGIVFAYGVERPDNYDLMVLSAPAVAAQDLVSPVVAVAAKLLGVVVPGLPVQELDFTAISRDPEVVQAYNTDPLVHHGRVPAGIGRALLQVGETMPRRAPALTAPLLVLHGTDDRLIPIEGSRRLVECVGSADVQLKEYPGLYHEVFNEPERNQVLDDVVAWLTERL

SMILES | IC50 [µM]
COc1ccc(-n2nc(C(=O)N3CC[C@@H](O)C3)cc2-c2ccccc2Cl)cc1 [ELF1, (R)-(5-(2-chlorophenyl)-1-(4-methoxyphenyl)-1H-pyrazol-3-yl)(3-hydroxypyrrolidin-1-yl)methanone] | 9.55
O=C(c1ccc(-c2cnc(-c3cccc(OC(F)(F)F)c3)o2)cc1)N1CC[C@@H](O)C1 [ELF8, (R)-(3-hydroxypyrrolidin-1-yl)(4-(2-(3-(trifluoromethoxy)phenyl)oxazol-5-yl)phenyl)methanone] | 4.26
COc1ccc(Nc2cc(-n3cc(C(=O)N4CC[C@@H](O)C4)cn3)ncn2)cc1 [ELF5, (R)-(3-hydroxypyrrolidin-1-yl)(1-(6-((4-methoxyphenyl)amino)pyrimidin-4-yl)-1H-pyrazol-4-yl)methanone] | 8.51
